# Source: publication PMC3967794 (Journal of medicinal chemistry, 2014)
# Legend:
# [1] = biological target: T1, human platelet 12-lipoxygenase (12-LOX) (Homo sapiens, UniProt P18054); assay: Lipoxygenase UV–vis cuvette-based assay, 12-LOX; format: biochemical
# T1 sequence (P18054 1-663): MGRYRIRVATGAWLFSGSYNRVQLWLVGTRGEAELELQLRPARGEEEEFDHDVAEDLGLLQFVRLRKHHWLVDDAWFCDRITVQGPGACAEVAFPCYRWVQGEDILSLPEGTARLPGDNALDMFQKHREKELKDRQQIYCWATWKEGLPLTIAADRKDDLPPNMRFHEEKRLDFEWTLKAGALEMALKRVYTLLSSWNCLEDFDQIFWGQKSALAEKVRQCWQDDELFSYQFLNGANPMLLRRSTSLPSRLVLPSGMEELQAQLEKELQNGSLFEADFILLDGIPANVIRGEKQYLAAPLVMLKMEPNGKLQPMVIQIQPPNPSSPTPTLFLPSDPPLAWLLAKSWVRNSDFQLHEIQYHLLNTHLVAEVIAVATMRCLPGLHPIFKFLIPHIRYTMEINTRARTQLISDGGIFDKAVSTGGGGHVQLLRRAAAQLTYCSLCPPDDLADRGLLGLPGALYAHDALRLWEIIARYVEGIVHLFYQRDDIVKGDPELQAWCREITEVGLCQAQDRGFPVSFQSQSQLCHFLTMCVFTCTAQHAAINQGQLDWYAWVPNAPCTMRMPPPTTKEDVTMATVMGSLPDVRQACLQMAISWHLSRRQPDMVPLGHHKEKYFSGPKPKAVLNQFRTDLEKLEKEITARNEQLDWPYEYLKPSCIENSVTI
# in vivo = settings: male, CD1, mouse, po, 30 mg/kg
# 12-LOX = biological target: T2, 12-LOX (Homo sapiens, UniProt P18054); assay: Steady-state inhibition kinetics; format: biochemical
# T2 sequence (P18054 1-663): T1 sequence (P18054 1-663)
# [2] = in the presence of NADPH
# [3] = pH 7.4, 48 h
SMILES,12-LOX inhibitory activity (in words) [1],PBS buffer (pH 7.4) solubility (PBS buffer) [µg/mL],further results
O=S(=O)(Nc1nccs1)c1ccc(NCc2ccccc2)cc1 [Compound 8],complete loss of activity,,
O=S(=O)(Nc1nccs1)c1ccc(NCc2ccccc2O)cc1 [Compound 9],complete loss of activity,,
Nc1ccccc1CNc1ccc(S(=O)(=O)Nc2nccs2)cc1 [Compound 13],negated all 12-LOX inhibitory activity,,
"COc1cccc(CNc2ccc(S(=O)(=O)Nc3nc4ccccc4s3)cc2)c1O [Compound 35, N-(Benzo[d]thiazol-2-yl)-4-((2-hydroxy-3-methoxybenzyl)-amino)benzenesulfonamide]",,<5,concentration at which calcium mobilization is reduced significantly (human platelets): 250 nM; AUC(0-inf) (in vivo): 38 µM·h
COc1cccc(CNc2ccc(S(=O)(=O)Nc3nc4ccccc4o3)cc2)c1O [Compound 36],,>60,mode of inhibition (12-LOX): mixed inhibitors; microsomal stability T1/2 (rat) [2]: >30 (rat) min; PBS buffer (pH 7.4) stability at 48 h [3]: 100%
